Legend:
[1] = system: T-Rex 293 cell line SC3 cells lacking increased expression of androgen receptor protein; test: Cellular growth inhibition, T-Rex 293 SC3 cells without doxycycline, CellTiter-Glo; type: cell-based; details: 72 h, T-Rex 293 SC3 cells not exposed to doxycycline, CellTiter-Glo 2.0
Protocol: (§1) The following types of cells were prepared for this experiment: (i) a T-Rex 293 cell line having increased expression of androgen receptor protein due to exposure to doxycycline and (ii) a T-Rex 293 cell line lacking increased expression of androgen receptor protein. Ability of the test compounds to inhibit proliferation of the foregoing cell types was evaluated according to the procedures set forth below.
(§2) The doxycycline-inducible androgen receptor protein expressing cell line was established using the following protocol: T-Rex 293 cells were purchased from Invitrogen (Cat #R71007) and transfected using Lipofectamine 2000 with the wild-type androgen receptor protein sequence cloned into the pcDNA4/TO vector. Transfected cells were selected using 400 μg/mL Zeocin (Invitrogen Cat #R25001). Following selection, single clones were raised and maintained in Dulbecco's Modified Eagle Medium (DMEM) supplemented with 10% w/w Tetracycline-free fetal bovine serum (FBS) and 250 μg/mL Zeocin. Clones were analyzed for expression of androgen receptor protein in the presence and absence of 10 ng/mL doxycycline (Sigma Cat #D9891), and a single doxycycline-inducible clone (hereinafter “SC3”) was selected for use in downstream assays.
(§3) The SC3 cells were seeded on poly-D-lysine coated, black clear-bottom 384-well plates at 2500/well, in 25 μL Phenol Red Free Dulbecco's Modified Eagle Medium (DMEM) supplemented with 10% w/w charcoal-dextran treated fetal bovine serum (FBS) and 1% w/w pen-strep, with or without 10 ng/mL doxycycline. Pen-Strep is a commercially available mixture of penicillin G and streptomycin, which is used in mammalian cell culture media to prevent bacterial contamination. Phenol Red Free Dulbecco's Modified Eagle Medium (DMEM) supplemented with 10% w/w charcoal-dextran treated fetal bovine serum (FBS) and 1% w/w pen-strep, with or without 10 ng/mL doxycycline is herein referred to as Treatment Medium. Following seeding of cells in the plates, the plates were spun at 300×g for 30 seconds, then equilibrated to room temperature for 30 minutes, and then deposited in a humidified tissue culture incubator maintained at 37° C. with 5% CO2.
(§4) At 24 hours after seeding of the cells, dilutions of test compound were prepared in DMSO and dissolved in Treatment Medium, to achieve a final DMSO concentration of 0.5% w/w, thereby providing the Test Compound Solution. A 25 μL aliquot of the Test Compound Solution was added to cells in the well plates. An equal volume of a solution containing DMSO and Treatment Medium was used as a negative control. Following treatment of cells with Test Compound Solution or said equal volume of a solution containing DMSO and Treatment Medium, the plates were spun at 300×g for 30 seconds, and then left in an incubator for 72 hours. At the end of the treatment duration, cell viability was quantified with CellTiter-Glo 2.0 reagent (Promega Cat #G9243). For this purpose, plates were equilibrated to room temperature for 30 minutes, and then 25 μL of CellTiter-Glo 2.0 reagent was added to cells in the plate wells. Plates were then agitated on a shaker for two minutes at 500 rpm and subsequently incubated at room temperature for 10 minutes. Following incubation, the plates were spun at 3000×g for 30 seconds, then sealed with an optical adhesive cover, and luminescence readings were measured with an EnVision Plate Reader. Data was normalized using zero luminescence for baseline. A four-parameter non-linear regression curve fit was applied to dose-response data in GraphPad Prism data analysis software to determine the half-maximal growth inhibitory concentration (GI50) for each test compound.

[2] = system: T47D cells; test: Cellular growth inhibition assay for T47D cells, CellTiter-Glo; type: cell-based, human; details: Homo sapiens, T47D, 72 h, 72 hours treatment, CellTiter-Glo 2.0 cell viability
Method in brief: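 Cells are plated at 3000/well and allowed 24 h before treatment. Test compound in medium containing 0.5% DMSO is then added, with DMSO-only wells as negative control, and plates are incubated 72 h at 37 °C. ATP luminescence (CellTiter-Glo 2.0) is then fitted to four parameters to derive GI50.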

[3] = system: VCaP cells; test: Cellular growth inhibition assay for VCaP cells, CellTiter-Glo; type: cell-based, human; details: Homo sapiens, VCaP, 72 h, 72 hours treatment, CellTiter-Glo 2.0
Method in brief: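 GI50 values come from four-parameter curve fits of luminescence data normalized to a zero baseline. Compound, in medium with 0.5% DMSO, was added one day after plating and left for 72 h before CellTiter-Glo 2.0 addition.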

[4] = system: T-Rex 293 cell line SC3 cells having increased expression of androgen receptor protein due to exposure to doxycycline; test: Cellular growth inhibition, T-Rex 293 SC3 cells with doxycycline (androgen receptor induced), CellTiter-Glo; type: cell-based; details: 72 h, T-Rex 293 SC3 cells with 10 ng/mL doxycycline (increased androgen receptor expression)
Protocol: as §1, §2, §3, §4

Row | Structure (SMILES) | GI50 [1] [nM] | GI50 [2] [nM] | GI50 [3] [nM] | GI50 [4] [nM]
1 | Cc1sc2c(c1C)C(c1ccc(Cl)cc1)=N[C@@H](CC(=O)NCCCOC1CCN(c3ncc(C(=O)N[C@H]4C(C)(C)[C@H](Oc5ccc(C#N)c(Cl)c5)C4(C)C)cn3)CC1)c1nnc(C)n1-2 [Compound I-20] | 500 to 1500 | 500 to 1500 | 500 to 1500 | < 500
2 | Cc1sc2c(c1C)C(c1ccc(Cl)cc1)=N[C@H](CC(=O)NCCCCOC1CCN(c3ncc(C(=O)N[C@H]4C(C)(C)[C@H](Oc5ccc(C#N)c(Cl)c5)C4(C)C)cn3)CC1)c1nnc(C)n1-2 [Compound I-21] | > 3000 | 500 to 1500 | < 500 | < 500
3 | Cc1sc2c(c1C)C(c1ccc(Cl)cc1)=N[C@@H](CC(=O)NCCN1CCN(CC3CCN(c4ncc(C(=O)N[C@H]5C(C)(C)[C@H](Oc6ccc(C#N)c(Cl)c6)C5(C)C)cn4)CC3)CC1)c1nnc(C)n1-2 [Compound I-35, N-((1r,3r)-3-(3-chloro-4-cyanophenoxy)-2,2,4,4-tetramethylcyclobutyl)-2-(4-((4-(2-(2-((S)-4-(4-chlorophenyl)-2,3,9-trimethyl-6H-thieno[3,2-f][1,2,4]triazolo[4,3-a][1,4]diazepin-6-yl)acetamido)ethyl)piperazin-1-yl)methyl)piperidin-1-yl)pyrimidine-5-carboxamide] | 500 to 1500 | < 500 | 500 to 1500 | 500 to 1500
4 | Cc1sc2c(c1C)C(c1ccc(OC3CC4(CCN(c5ncc(C(=O)N[C@H]6C(C)(C)[C@H](Oc7ccc(C#N)c(Cl)c7)C6(C)C)cn5)CC4)C3)cc1)=N[C@H](Cc1ncco1)c1nnc(C)n1-2 [Compound I-50, N-[3-(3-chloro-4-cyano-phenoxy)-2,2,4,4-tetramethyl-cyclobutyl]-2-[2-[4-[(9R)-4,5,13-trimethyl-9-(oxazol-2-ylmethyl)-3-thia-1,8,11,12-tetrazatricyclo[8.3.0.02,6]trideca-2(6),4,7,10,12-pentaen-7-yl]phenoxy]-7-azaspiro[3.5]nonan-7-yl]pyrimidine-5-carboxamide] | > 3000 | > 3000 | > 3000 | < 500
5 | Cc1sc2c(c1C)C(c1ccc(C#CCN3CCN(c4ncc(C(=O)N[C@H]5C(C)(C)[C@H](Oc6ccc(C#N)c(Cl)c6)C5(C)C)cn4)CC3)cc1)=N[C@@H](Cc1ncco1)c1nnc(C)n1-2 [Compound I-56] | < 500 | < 500 | < 500 | < 500
6 | Cc1sc2c(c1C)C(c1ccc(C#CCC3CCN(c4ncc(C(=O)N[C@H]5C(C)(C)[C@H](Oc6ccc(C#N)c(Cl)c6)C5(C)C)cn4)CC3)cc1)=N[C@@H](Cc1ncco1)c1nnc(C)n1-2 [Compound I-57] | < 500 | < 500 | < 500 | < 500
7 | Cc1sc2c(c1C)C(c1ccc(C#CCC3CCN(c4ncc(C(=O)N[C@H]5C(C)(C)[C@H](Oc6ccc(C#N)c(Cl)c6)C5(C)C)cn4)CC3)cc1)=N[C@H](Cc1ncco1)c1nnc(C)n1-2 [Compound I-58] | > 3000 | > 3000 | < 500 | < 500
8 | Cc1sc2c(c1C)C(c1ccc(C#CC3CC4(C3)CN(c3ncc(C(=O)N[C@H]5C(C)(C)[C@H](Oc6ccc(C#N)c(Cl)c6)C5(C)C)cn3)C4)cc1)=N[C@@H](Cc1ncco1)c1nnc(C)n1-2 [Compound I-59] | < 500 | < 500 | < 500 | < 500
9 | Cc1sc2c(c1C)C(c1ccc(OCCOC3CCN(c4ncc(C(=O)N[C@H]5C(C)(C)[C@H](Oc6ccc(C#N)c(Cl)c6)C5(C)C)cn4)CC3)cc1)=N[C@@H](CC(=O)NC(C)C)c1nnc(C)n1-2 [Compound I-65] | < 500 | 500 to 1500 | < 500 | < 500
10 | CCNC(=O)C[C@@H]1N=C(c2ccc(CCCCOC3CCN(c4ncc(C(=O)N[C@H]5C(C)(C)[C@H](Oc6ccc(C#N)c(Cl)c6)C5(C)C)cn4)CC3)cc2)c2c(sc(C)c2C)-n2c(C)nnc21 [Compound I-91] | 500 to 1500 |  | 500 to 1500 | < 500
11 | CCNC(=O)C[C@@H]1N=C(c2ccc(CCCCCCCOC3CCN(c4ncc(C(=O)N[C@H]5C(C)(C)[C@H](Oc6ccc(C#N)c(Cl)c6)C5(C)C)cn4)CC3)cc2)c2c(sc(C)c2C)-n2c(C)nnc21 [Compound I-92] | > 3000 |  | < 500 | < 500
12 | Cc1sc2c(c1C)C(c1ccc(CC3CC(C4CCCN(c5ncc(C(=O)N[C@H]6C(C)(C)[C@H](Oc7ccc(C#N)c(Cl)c7)C6(C)C)cn5)C4)C3)cc1)=N[C@@H](C)c1nnc(C)n1-2 (stereo partly drawn) [Compound I-463] | > 3000 |  | < 500 | < 500
13 | Cc1sc2c(c1C)C(c1ccc(-n3cc(C4CCN(c5ncc(C(=O)N[C@H]6C(C)(C)[C@H](Oc7ccc(C#N)c(Cl)c7)C6(C)C)cn5)CC4)nn3)cc1)=N[C@@H](Cc1ncco1)c1nnc(C)n1-2 [Compound I-481] | 500 to 1500 |  | < 500 | < 500
14 | Cc1sc2c(c1C)C(c1ccc(-c3cc(C4CCN(c5ncc(C(=O)N[C@H]6C(C)(C)[C@H](Oc7ccc(C#N)c(Cl)c7)C6(C)C)cn5)CC4)no3)cc1)=NC(Cc1ncco1)c1nnc(C)n1-2 (stereo partly drawn) [Compound I-482] | < 500 |  | < 500 | < 500
15 | Cc1sc2c(c1C)C(c1ccc(-c3cn(C4CCN(c5ncc(C(=O)N[C@H]6C(C)(C)[C@H](Oc7ccc(C#N)c(Cl)c7)C6(C)C)cn5)CC4)nn3)cc1)=NC(Cc1ncco1)c1nnc(C)n1-2 (stereo partly drawn) [Compound I-483] | < 500 |  | < 500 | < 500
16 | Cc1sc2c(c1C)C(c1ccc(-c3cn(C4CCN(c5ncc(C(=O)N[C@H]6C(C)(C)[C@H](Oc7ccc(C#N)c(Cl)c7)C6(C)C)cn5)CC4)cn3)cc1)=N[C@@H](Cc1ncco1)c1nnc(C)n1-2 [Compound I-484] | 500 to 1500 |  | 500 to 1500 | < 500
17 | Cc1sc2c(c1C)C(c1ccc(N3CCCN(CCCNc4ncc(C(=O)N[C@H]5C(C)(C)[C@H](Oc6ccc(C#N)c(Cl)c6)C5(C)C)cn4)CC3)cc1)=N[C@@H](Cc1ncco1)c1nnc(C)n1-2 [Compound I-666] | 1500 to 3000 |  | < 500 | < 500
18 | Cc1sc2c(c1C)C(c1ccc(N3CCC(C)(CNc4ncc(C(=O)N[C@H]5C(C)(C)[C@H](Oc6ccc(C#N)c(Cl)c6)C5(C)C)cn4)CC3)cc1)=NC(Cc1ncco1)c1nnc(C)n1-2 (stereo partly drawn) [Compound I-667] | < 500 |  | < 500 | < 500
19 | Cc1sc2c(c1C)C(c1ccc(N3CCC4(CC3)CC(Nc3ncc(C(=O)N[C@H]5C(C)(C)[C@H](Oc6ccc(C#N)c(Cl)c6)C5(C)C)cn3)C4)cc1)=N[C@@H](Cc1ncco1)c1nnc(C)n1-2 [Compound I-668] | < 500 |  | < 500 | < 500
20 | Cc1sc2c(c1C)C(c1ccc(N3CCO[C@@H](CNc4ncc(C(=O)N[C@H]5C(C)(C)[C@H](Oc6ccc(C#N)c(Cl)c6)C5(C)C)cn4)C3)cc1)=NC(Cc1ncco1)c1nnc(C)n1-2 (stereo partly drawn) [Compound I-669] | < 500 |  | < 500 | < 500
21 | Cc1sc2c(c1C)C(c1ccc(N3CCN(c4ncc(C(=O)N[C@H]5C(C)(C)[C@H](Oc6ccc(C#N)c(Cl)c6)C5(C)C)cn4)CC(F)(F)C3)cc1)=NC(Cc1ncco1)c1nnc(C)n1-2 (stereo partly drawn) [Compound I-670] | > 3000 |  | < 500 | < 500

— patent US20260062422A1 (Halda Therapeutics OpCo, Inc., priority 2022, published 2026)
